Several values for one entry are separate records, joined by “and”; a condition that tells them apart may be missing. Identical values can stand only once. Like-named read-outs stand apart in the source and are kept apart here.
Tests used:
[1] = tested on: CEM-SS cells; experiment: Cytotoxicity assay (growth inhibition, Coulter counter)
Protocol: (§1) […] Each result is the mean of one representative experiment performed in duplicate. The cultures with the purine nucleosides adenosine, 2′-deoxyadenosine, and arabinosyladenine contained 5 μM deoxycoformycin to inhibit adenosine deaminase activity.
(§2) All assays were performed in 24-well tissue culture plates (Costar, Cambridge, Ma.). […] At the end of the incubation, the cell concentrations, sizes, and volumes were counted in a Coulter counter (Coulter Electronics, Hialeah. Fla.).

[2] = tested on: CEM-r1 cells; experiment: as above; conditions: for Relative Resistance: CEM-r1 vs CEM-SS (Table 3)
Protocol: (§3) Selection for PMEA resistance was carried out by exposing CEM-SS cells in culture to increasing concentrations of PMEA, over several months.
(§4) The IC50 values were obtained after 2 days of culture. Each result is the mean of one representative experiment performed in duplicate. The cultures with the purine nucleosides adenosine, 2′-deoxyadenosine, and arabinosyladenine contained 5 μM deoxycoformycin to inhibit adenosine deaminase activity.
as §2

[3] = tested on: CEM-SS cells; experiment: Uptake and metabolism of [3H]bispom-PMEA; conditions: for Metabolite Levels, Cells / Metabolite Levels, Medium: CEM-SS, 1 μM [3H]bispom-PMEA, 15 minutes
Protocol: (§5) Therefore, the metabolism of [^3H]bispom-PMEA (15), a lipophilic prodrug of PMEA, was analyzed in the two cell lines in order to further examine the mechanism of resistance in the mutant cell line.

[4] = tested on: CEM-r1 cells; experiment: Uptake and metabolism of [3H]bispom-PMEA; conditions: for Metabolite Levels, Cells / Metabolite Levels, Medium: CEM-r1, 1 μM [3H]bispom-PMEA, 15 minutes
Protocol: as §5

[5] = tested on: CEM-SS cells; experiment: Efflux of PMEA from bispom-PMEA loaded cells; format: in vitro ADME, human; conditions: for Efflux kinetics, PMEA: CEMss
Protocol: (§6) To examine whether the resistant cells could be altered in their capacity to retain the phosphonate analog, the clearance of [^3H]PMEA and its metabolites from CEM-SS and CME-r1 cells was determined. […] Aliquots of cells and medium sampled at different intervals over a period of 2 hr were analyzed by HPLC, and the results are shown in FIG. 4. […] Some of this clearance was probably due to the anabolism of PMEA, because the PMEAp- and PMEApp-associated radioactivity continued to accumulate within the cells, but the majority of the radioactivity was excreted into the medium as PMEA. In contrast to the results with parental cells, loss of intracellular PMEA-associated radioactivity in the resistant CEM-r1 cells was extremely rapid and the majority of the radioactivity within the cells was excreted into the medium within 20-30 minutes of incubation (FIG. 4).
(§7) Both CEM-SS and CME-r1 cells were incubated for 3 minutes with increasing concentrations (range 0.07 mM to 8.80 mM) of the prodrug for the selecting agent, Bis(POM)PMEA. After incubation, the cells were pelleted and reconstituted in drug-free medium, and the amount of PMEA present in the medium and intracellularly was measured 15 minutes after resuspension. The amount of PMEA effluxing out into the medium at 15 minutes increased initially with increasing concentration (FIG. 7A).
(§8) Referring to Table 6 in greater detail, efflux kinetics were studied. Transport analysis of PMEA was conducted as previously described^48. […] The cells were then washed free of radioactivity and then incubated in drug-free medium in the presence of sodium azide and 2-deoxy-D-glucose. At various time periods, the amount of intracellular AZTMP was measured. As reported in Table 6, depletion of ATP led to an inhibition of AZTMP efflux (i.e. a significant accumulation of AZTMP in the CEM-r1 cells but not in the CEM-SS cells).
(§9) At the indicated times, extracts were prepared from the cells and the medium, and the prodrug and its various nucleoside/nucleotide metabolites were analyzed by HPLC as described previously (24).

[6] = tested on: CEM-r1 cells; experiment: Efflux of PMEA from bispom-PMEA loaded cells; format: in vitro ADME, human
Protocol: as §6, §7
CEM-r1 cells were incubated with 0.07-8.8 mM Bis(POM)PMEA for 3 minutes. The cells were pelleted and reconstituted in either drug-free medium or in medium containing 0.5 mM PMEA, and the amount of PMEA present in the medium and intracellularly was measured 15 minutes after resuspension.
as §8, §9

[7] = Cytotoxicity assay (growth inhibition, Coulter counter); conditions: human, CEM-SS cells (wild type, parental)
Protocol: as §1, §2

[8] = as above; conditions: human
Protocol: as §3, §4, §2

[9] = tested on: HIV-1IIIB in CEM-SS cells; experiment: Antiviral activity (ED50, RT / p24 assay) in wild type cells; format: cell-based; conditions: Human immunodeficiency virus 1, WT (CEM-SS) cells
Description: (§10) As used herein, “pM” means picomolar, “nM” means nanmolar, “μM, means micromolar, “mM” means millimolar, “ul” or “μl” mean microliter, “ml” means milliliter, “l” means liter. […] “IC50” means the inhibitory concentration at which growth is arrested by 50 percent.
(§11) The two cell lines, CEM-SS and CEM-r1 were infected with HIV-IMB at a multiplicity of 0.01, and cultured for 6 days in the presence and absence of different concentrations of test drugs. The extent of virus production was monitored by in in-house p24 antigen capture assay (50).
The antiviral effects of the different drugs were monitored by RT assays according to previously described procedures (20, 21). […] After 5 days of incubation, the RT activity of the culture supernates was determined by previously described procedures (22). […] The filter papers were dried, transferred to a plastic bag containing scintillation cocktail, sealed, and counted in an LKB Betaplate reader. The drug concentrations yielding half-maximal RT activity (ED50) was calculated as a measure of the antiviral efficacy of the test compounds, using the nonlinear curve-fitting software Enzfitter (Elsevier Biosoft, Cambridge, UK).

[10] = tested on: HIV-1IIIB in CEM-r1 cells; experiment: Antiviral activity (ED50, RT / p24 assay) in resistant cells; format: cell-based
Description: as §10, §11
The antiviral effects of the different drugs were monitored by RT assays according to previously described procedures (20, 21). CEM-SS or CEM-r1 cells were infected with an inoculum of HIV-1IIIB standardized to contain 1 RT cpm/cell, and the virus-infected cells were seeded at a concentration of 0.2×10^6 cells/ml in medium containing varying concentrations of PMEA (or other test compounds). After 5 days of incubation, the RT activity of the culture supernates was determined by previously described procedures (22). […] The reaction was initiated by addition of 10 ul of virus-containing tissue culture supernatant. After 1 hr of incubation, 10 ul of the reaction mixture were spotted on a Whatman DE-81 tilter paper, air dried, and washed four times with 2×standard saline citrate (0.3 M NaCl, 0.03 M sodium citrate). The filter papers were dried, transferred to a plastic bag containing scintillation cocktail, sealed, and counted in an LKB Betaplate reader. The drug concentrations yielding half-maximal RT activity (ED50) was calculated as a measure of the antiviral efficacy of the test compounds, using the nonlinear curve-fitting software Enzfitter (Elsevier Biosoft, Cambridge, UK).

[11] = tested on: CaCo-2 cells; experiment: PMEA transport in transwell culture; format: in vitro ADME
Description: A transwell culture which is permissive for cellular polarization may be used to measure the compartment to compartment flux of putative substrates. […] In addition, it is possible that expression of MPR4 depending if it is basal or apical (and this may vary by organ cultured) may determine if PMEA or PMEA-like drugs are absorbed.

[12] = tested on: CEM/VLB100
[13] = tested on: CEM-SS cells; experiment: Uptake and metabolism of [3H]PMEA; conditions: 10 μM [3H]PMEA
Protocol: (§12) The mutant and parental cells were incubated with 10 μM [^3H]PMEA and at various times were analyzed for intracellular levels of PMEA and its metabolites by Partisil SAX HPLC. […] The metabolism of [^3H]PMEA was also examined in both cell lines after longer periods (i.e., 8 and 12 hr) of incubation with 10 μM [^3H]PMEA.
(§13) Exponentially growing cultures were incubated with 10 μM [^3H] PMEA for 8 or 12 hr and the cell extracts were analyzed for PMEA and its metabolites by ion exchange HPLC, as described.
(§14) Exponentially growing CEM-SS and CEM-r1 cells were harvested by centrifugation, resuspended at 1×10^6 cells/ml in fresh medium in the presence of [^3H]PMEA or [^3H]bispom-PMEA, and incubated at 37° C. At the indicated time points, aliquots of the cells were removed and centrifuged through Nyosil 50 (W. F. Nye, Inc., New Bedford, Ma.) at 13,000×g for 60 seconds at 4° C. When bispom-PMEA was investigated, an aliquot of the cell-free medium was also removed and analyzed by HPLC for determination of extracellular metabolites. The cell pellet was extracted with 70% ice-cold methanol and the aqueous phase was collected and analyzed for intracellular tritiated PMEA or tritiated bispom-PMEA and their metabolites by using HPLC analysis, essentially as described previously (23, 24).

[14] = tested on: CEM-r1 cells; experiment: Uptake and metabolism of [3H]PMEA; conditions: for Intracellular levels: CEM-r1, 10 μM [3H]PMEA
Protocol: as §12, §13, §14

[15] = CEM-SS, 2 days of culture (Table 3)
[16] = CEM-r1, 2 days of culture (Table 3)

In the case of `CC(C)(C)C(=O)OCOP(=O)(COCCn1cnc2c(N)ncnc21)OCOC(=O)C(C)(C)C` [Bispom-PMEA, bis(pivaloyloxymethyl)-9-(2-phosphonylmethoxyethyl)adenine], the IC50 [1, 15] is reported as 0.26 µM, the IC50 [2, 16] is reported as 32 µM and the “Relative Resistance” value [2] is reported as 123. The “Cross-resistance of CEM-r1 cells (in words)” value ([2]; relative sensitivity of wild-type and CEM-r1 cells) was “highly cross-resistant”, the “Metabolite Levels, Cells” value [3] was 0.03 µM and the “Metabolite Levels, Medium” value [3] was 490 nM. The “Radioactivity present in the cells detected as the intact pro-drug” value ([3]; after incubation with [3H]bispom-PMEA, similar in parental and resistant cells) was about 2%, the “Initial uptake, difference between the two cell lines” value ([4]; 1 μM [3H]bispom-PMEA, early time course (120 sec), CEM-SS vs CEM-r1) was “no significant difference” and the “Metabolite Levels, Cells” value [4] was 0.04 µM. The “Metabolite Levels, Medium” value [4] was 429 nM, the “Prodrug concentration above which the amount of PMEA effluxed did not increase significantly” value ([5]; CEM-SS, 3 min incubation, efflux at 15 minutes) was “higher than 2.2 mM” and the “Prodrug concentration above which the amount of PMEA effluxed did not increase significantly” value ([6]; CEM-r1, 3 min incubation, efflux at 15 minutes) was over 4.4 mM.
With `Nc1ccn([C@@H]2CS[C@H](CO)O2)c(=O)n1` [3TC, lamivudine] the IC50 at 48 h [7] was 1000 µM, the IC50 at 48 h [8] was 5000 µM and the EC50 [9] was 0.21 µM. It also gave an EC50 ([10]; Human immunodeficiency virus 1, CEM-r1 cells, HIV) of 1.1 µM.
For `Nc1ncnc2c1ncn2CCOCP(=O)(O)O` [PMEA, 9-(2phosphonylmethoxyethyl)adenine], the IC50 [1, 15] was 34 µM, the IC50 ([1]; read-out: Cytotoxicity IC50, WT (CEM-SS) cells (Table 5)) was 80 µM and the IC50 ([1]; read-out: Drug sensitivity (concentration to inhibit 50% growth), CEMss, 24 h exposure (Table 6)) was 80 µM. For the same molecule, the IC50 [2, 16] was 6200 µM, the “Relative Resistance” value [2] was 182 and the “Resistance of CEM-r1 cells to the cytotoxic effects, compared with the parental cells” value ([2]; CEM-r1 vs parental CEM-SS) was ~250 fold and > 250 fold. For the same molecule, the “Fold Resistance (cytotoxicity)” value ([2]; ratio of IC50 of resistant line to IC50 of wild type) was 250, the IC50 ([2]; read-out: Cytotoxicity IC50, CEM-r1 cells (Table 5)) was 20000 µM and the “Fold Resistance (antiviral activity)” value ([10]; CEM-r1 vs WT) was over 150. For the same molecule, the “Metabolite Levels, Cells” value [3] was 33.1 µM, the “Metabolite Levels, Medium” value [3] was 4.8 nM and the “Levels in CEM-r1 cells relative to those seen in parental cells” value ([4]; 1 μM [3H]bispom-PMEA, 15 min) was “about one third”. The “Metabolite Levels, Cells” value [4] was 13.3 µM, the “Metabolite Levels, Medium” value [4] was 23.2 nM and the “Levels of extracellular PMEA, CEM-r1 vs parental CEM-SS” value ([4]; medium, 1 μM [3H]bispom-PMEA, 15 min) was about 5 fold. For the same molecule, the “Efflux kinetics, PMEA” value ([5]; Azide + Deoxyglucose) was over 26 min, the “Efflux kinetics, PMEA” value ([5]; no treatment) was over 26 min and the Rate of efflux ([5]; parental CEM-SS cells) was 0.4 pmol/min/10^6 cells. The “Time to half-maximal clearance of intracellular radioactivity” value ([5]; parental CEM-SS cells, loaded with 1 μM [3H]bispom-PMEA, drug-free medium) was “about 60 min”, the “Increase in rate of efflux, CEM-r1 vs CEM-SS” value [6] was about 7 fold and the “Amount of PMEA effluxed in the presence or absence of PMEA in the medium” value ([6]; CEM-r1, medium with 0.5 mM PMEA vs drug-free) was “no significant difference”. For the same molecule, the “Time within which the majority of the radioactivity was excreted into the medium” value ([6]; CEM-r1 cells, loaded with 2 μM [3H]bispom-PMEA, drug-free medium) was 20 to 30 min, the “Efflux kinetics, PMEA” value ([6]; CEMr-1, Azide + Deoxyglucose) was over 26 min and the “Efflux kinetics, PMEA” value ([6]; CEMr-1, no treatment) was 4.4 min. For the same molecule, the Rate of efflux ([6]; resistant CEM-r1 cells) was 2.55 pmol/min/10^6, the “Direction of transport in transwell culture” value ([11]; CaCo-2) was “more rapidly transported from the apical to the basal side” and the “Cross-resistance of MDR mutant CEM/VLB100” value [12] was “did not exhibit any cross-resistance”. The Intracellular levels ([13]; 8 hr) was 1.7 µM, the Intracellular levels ([13]; 12 hr) was 2.5 µM and the Intracellular levels ([14]; 8 hr) was 1.0 µM. For the same molecule, the Intracellular levels ([14]; 12 hr) was 1 µM and 0.99 µM and the “Intracellular level in CEM-r1 as percent of the wildtype level” value ([14]; CEM-r1 vs CEM-SS, 8 hr) was “(56%)”.
For prostaglandin A, the “Effect on apical to basal transport of PMEA” value ([11]; CaCo-2 transwell) was “specifically inhibits” and the “Effect on basal to apical flux of PMEA” value ([11]; CaCo-2 transwell) was “no effect”.

Reference: US6759238B1, “Multidrug resistance associated proteins and uses thereof” (priority 1999, dated 2004)
